Experimental findings from patent publication US9636418B2 (priority 2013, dated 2017) are described below.

Several values for one entry are separate records, joined by “and”; a condition that tells them apart may be missing. Identical values can stand only once. Like-named read-outs stand apart in the source and are kept apart here. Where only a bound is given, the exact number is not on record here.

Common to all, as to assay: cell-based
The target in assay [1] is T1, hNav1.4 (Homo sapiens, UniProt P35499). As to conditions: for Nav1.4/Nav1.7: ratio of IonWorks Quattro IC50 values. Background: The patch-clamp technique gives a direct electrical read-out from membranes.
Assay [2] concerns the target T2, hNav1.7 (Homo sapiens, UniProt Q15858). As to conditions: IonWorks Quattro; read-out: IC50 Nav1.7.
The target in a further assay is hNav1.3 (Homo sapiens, UniProt Q9NY46). As to conditions: IonWorks Quattro; read-out: IC50 Nav1.3.
For assay [3], the target named is T1, hNav1.4. As to conditions: for IC50: PatchXpress, tonic block, read-out: PX hNav1.4 Tonic IC50; for Nav1.4/Nav1.7: ratio of PX tonic IC50 values.
Assay [4] has as its target T2, hNav1.7. Type of assay: cell-based. As to conditions: PatchXpress, tonic block; read-out: PX hNav1.7 Tonic IC50.
The next assay deals with hNav1.5 (Homo sapiens, UniProt Q14524). As to conditions: for IC50: PatchXpress, tonic block, read-out: PX hNav1.5 Tonic IC50; for Nav1.5/Nav1.7: ratio of PX tonic IC50 values.

T1 sequence (P35499 whole entry): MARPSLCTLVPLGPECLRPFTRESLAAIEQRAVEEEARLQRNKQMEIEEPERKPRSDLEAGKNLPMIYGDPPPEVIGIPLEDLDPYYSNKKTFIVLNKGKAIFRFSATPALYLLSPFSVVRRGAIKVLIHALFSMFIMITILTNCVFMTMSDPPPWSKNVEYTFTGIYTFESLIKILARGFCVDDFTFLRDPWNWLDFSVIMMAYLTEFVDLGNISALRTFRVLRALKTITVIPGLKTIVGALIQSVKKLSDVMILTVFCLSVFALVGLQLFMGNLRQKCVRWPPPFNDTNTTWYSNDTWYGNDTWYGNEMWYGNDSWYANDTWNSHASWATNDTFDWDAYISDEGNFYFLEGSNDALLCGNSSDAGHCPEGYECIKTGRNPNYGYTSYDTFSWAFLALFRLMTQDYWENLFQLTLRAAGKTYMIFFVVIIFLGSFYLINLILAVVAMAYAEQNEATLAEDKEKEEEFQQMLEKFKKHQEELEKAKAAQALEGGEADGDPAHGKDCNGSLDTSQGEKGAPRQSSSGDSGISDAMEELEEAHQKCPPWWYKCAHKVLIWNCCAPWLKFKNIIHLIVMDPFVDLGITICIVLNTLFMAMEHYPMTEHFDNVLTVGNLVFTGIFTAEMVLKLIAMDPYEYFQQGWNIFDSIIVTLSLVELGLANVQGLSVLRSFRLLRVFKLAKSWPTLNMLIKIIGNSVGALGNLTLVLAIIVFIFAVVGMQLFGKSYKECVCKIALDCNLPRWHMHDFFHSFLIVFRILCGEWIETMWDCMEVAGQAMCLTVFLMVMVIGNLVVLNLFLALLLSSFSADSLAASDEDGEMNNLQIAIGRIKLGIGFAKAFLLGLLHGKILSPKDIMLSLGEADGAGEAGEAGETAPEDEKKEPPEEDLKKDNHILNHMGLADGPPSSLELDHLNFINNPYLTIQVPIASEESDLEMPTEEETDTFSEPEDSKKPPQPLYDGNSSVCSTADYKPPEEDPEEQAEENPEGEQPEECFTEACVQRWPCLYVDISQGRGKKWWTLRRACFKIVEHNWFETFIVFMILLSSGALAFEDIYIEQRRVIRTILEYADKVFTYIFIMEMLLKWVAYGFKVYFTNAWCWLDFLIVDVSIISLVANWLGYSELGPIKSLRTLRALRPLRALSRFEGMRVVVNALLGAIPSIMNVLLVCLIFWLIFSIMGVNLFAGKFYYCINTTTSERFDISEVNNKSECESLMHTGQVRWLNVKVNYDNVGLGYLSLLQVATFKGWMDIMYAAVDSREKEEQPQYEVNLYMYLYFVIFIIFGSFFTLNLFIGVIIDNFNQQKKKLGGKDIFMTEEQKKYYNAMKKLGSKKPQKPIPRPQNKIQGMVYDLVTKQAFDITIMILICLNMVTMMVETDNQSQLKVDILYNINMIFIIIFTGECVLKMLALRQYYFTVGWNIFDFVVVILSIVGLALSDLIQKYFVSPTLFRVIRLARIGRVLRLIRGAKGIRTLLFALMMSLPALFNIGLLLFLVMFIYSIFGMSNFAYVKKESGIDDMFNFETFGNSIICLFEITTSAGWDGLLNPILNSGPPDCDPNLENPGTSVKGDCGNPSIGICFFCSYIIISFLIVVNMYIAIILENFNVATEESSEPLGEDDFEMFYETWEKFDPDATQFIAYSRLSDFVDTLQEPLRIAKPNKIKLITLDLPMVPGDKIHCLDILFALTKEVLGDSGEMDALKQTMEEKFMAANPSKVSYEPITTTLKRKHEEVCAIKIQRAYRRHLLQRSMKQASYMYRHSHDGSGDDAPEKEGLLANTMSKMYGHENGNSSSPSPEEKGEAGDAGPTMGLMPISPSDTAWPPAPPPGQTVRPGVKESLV
T2 sequence (Q15858 whole entry): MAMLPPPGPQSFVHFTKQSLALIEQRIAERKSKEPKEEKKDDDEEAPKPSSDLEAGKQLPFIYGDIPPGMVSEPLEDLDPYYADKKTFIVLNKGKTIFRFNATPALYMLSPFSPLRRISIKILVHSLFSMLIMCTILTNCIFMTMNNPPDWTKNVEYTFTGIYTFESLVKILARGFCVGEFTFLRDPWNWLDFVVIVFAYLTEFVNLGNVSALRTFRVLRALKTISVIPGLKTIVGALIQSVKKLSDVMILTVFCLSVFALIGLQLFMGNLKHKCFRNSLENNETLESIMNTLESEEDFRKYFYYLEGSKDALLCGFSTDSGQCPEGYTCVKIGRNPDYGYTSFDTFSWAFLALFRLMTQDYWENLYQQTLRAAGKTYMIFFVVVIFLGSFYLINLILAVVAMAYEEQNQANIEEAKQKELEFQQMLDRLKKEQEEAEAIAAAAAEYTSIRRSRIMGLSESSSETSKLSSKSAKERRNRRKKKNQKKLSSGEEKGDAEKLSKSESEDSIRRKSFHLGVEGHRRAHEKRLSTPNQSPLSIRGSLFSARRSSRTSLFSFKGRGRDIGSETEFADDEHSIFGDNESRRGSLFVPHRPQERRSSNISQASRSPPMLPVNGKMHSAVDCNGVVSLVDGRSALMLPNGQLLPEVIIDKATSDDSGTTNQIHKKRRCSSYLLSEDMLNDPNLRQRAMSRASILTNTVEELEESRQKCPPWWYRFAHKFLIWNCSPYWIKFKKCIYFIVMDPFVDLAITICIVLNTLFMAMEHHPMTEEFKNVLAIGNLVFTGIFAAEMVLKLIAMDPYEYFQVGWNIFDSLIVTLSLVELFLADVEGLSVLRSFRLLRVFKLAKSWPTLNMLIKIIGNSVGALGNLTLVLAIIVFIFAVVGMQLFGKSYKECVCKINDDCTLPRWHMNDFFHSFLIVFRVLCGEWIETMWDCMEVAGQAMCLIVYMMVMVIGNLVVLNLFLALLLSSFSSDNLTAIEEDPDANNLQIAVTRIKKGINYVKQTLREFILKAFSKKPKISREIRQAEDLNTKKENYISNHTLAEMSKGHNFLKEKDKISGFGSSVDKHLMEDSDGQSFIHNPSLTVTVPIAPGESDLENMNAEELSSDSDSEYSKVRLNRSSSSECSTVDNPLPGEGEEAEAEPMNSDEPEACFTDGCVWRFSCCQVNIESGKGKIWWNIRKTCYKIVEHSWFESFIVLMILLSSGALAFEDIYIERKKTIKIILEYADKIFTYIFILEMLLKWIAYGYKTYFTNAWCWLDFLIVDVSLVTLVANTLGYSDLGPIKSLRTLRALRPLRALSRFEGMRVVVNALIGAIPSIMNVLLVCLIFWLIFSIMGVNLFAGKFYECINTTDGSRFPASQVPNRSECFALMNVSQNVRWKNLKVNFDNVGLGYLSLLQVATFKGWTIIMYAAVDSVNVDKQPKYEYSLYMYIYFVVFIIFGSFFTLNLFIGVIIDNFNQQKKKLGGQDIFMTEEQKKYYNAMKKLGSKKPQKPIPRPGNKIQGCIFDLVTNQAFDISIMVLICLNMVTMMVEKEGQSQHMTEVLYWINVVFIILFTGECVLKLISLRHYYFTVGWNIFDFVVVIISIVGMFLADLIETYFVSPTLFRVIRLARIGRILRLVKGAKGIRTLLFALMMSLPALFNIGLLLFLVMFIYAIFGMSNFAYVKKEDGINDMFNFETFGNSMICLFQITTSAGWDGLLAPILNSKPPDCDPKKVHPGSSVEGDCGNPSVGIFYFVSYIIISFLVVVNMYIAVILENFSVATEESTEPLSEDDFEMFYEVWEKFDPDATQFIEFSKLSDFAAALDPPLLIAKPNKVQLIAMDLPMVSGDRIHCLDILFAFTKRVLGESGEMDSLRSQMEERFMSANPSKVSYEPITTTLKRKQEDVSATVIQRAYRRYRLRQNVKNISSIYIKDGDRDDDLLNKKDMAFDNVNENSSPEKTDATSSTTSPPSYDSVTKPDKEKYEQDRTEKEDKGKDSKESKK

The IC50 is the concentration at which inhibition is half-maximal. `CC[C@H](C)[C@H](NC(=O)CNC(=O)[C@H](CCCCN)NC(=O)[C@H](CCCNC(=N)N)NC(=O)[C@@H]1CSSC[C@@H]2NC(=O)[C@H](C)NC(=O)[C@H](CCCNC(=N)N)NC(=O)[C@H](CCCCN)NC(=O)[C@H](CO)NC(=O)[C@H](CC(=O)O)NC(=O)[C@@H]3CSSC[C@H](NC(=O)[C@H](CCC(=O)O)NC(=O)[C@H](CC(C)C)NC(=O)CNC(=O)[C@H](CCC(=O)O)NC(=O)[C@H](CSSC[C@H](NC(=O)[C@@H](N)Cc4ccc(O)cc4)C(=O)N[C@@H](CCC(N)=O)C(=O)N[C@@H](CCCCN)C(=O)N[C@@H](Cc4c[nH]c5ccccc45)C(=O)N[C@@H](CCSC)C(=O)N[C@@H](Cc4c[nH]c5ccccc45)C(=O)N[C@@H]([C@@H](C)O)C(=O)N3)NC2=O)C(=O)N[C@@H](CCCCN)C(=O)N[C@@H](CC(C)C)C(=O)N[C@@H](Cc2c[nH]c3ccccc23)C(=O)N1)C(N)=O` [compound 134]: the IC50 on hNav1.4 [1] (IonWorks Quattro, read-out: IC50 Nav1.4) is more than 5000 nM; at hNav1.7 [2], 300 nM and 370 nM; at hNav1.3, more than 5000 nM. For the same molecule, at hNav1.4 [1], the Nav1.4/Nav1.7 is 17 and 13.
For `CC[C@H](C)[C@H](NC(=O)[C@@H](NC(=O)[C@H](CCCCN)NC(=O)[C@H](CCCNC(=N)N)NC(=O)[C@@H]1CSSC[C@@H]2NC(=O)[C@H](C)NC(=O)[C@H](CCCNC(=N)N)NC(=O)[C@H](CCCCN)NC(=O)[C@H](CO)NC(=O)[C@H](CC(=O)O)NC(=O)[C@@H]3CSSC[C@H](NC(=O)[C@H](CCC(=O)O)NC(=O)[C@H](CC(C)C)NC(=O)CNC(=O)[C@H](CCC(=O)O)NC(=O)[C@H](CSSC[C@H](NC(=O)[C@@H](N)Cc4ccc(O)cc4)C(=O)N[C@@H](CCC(N)=O)C(=O)N[C@@H](CCCCN)C(=O)N[C@@H](Cc4c[nH]c5ccccc45)C(=O)N[C@@H](CCSC)C(=O)N[C@@H](Cc4c[nH]c5ccccc45)C(=O)N[C@@H](Cc4cn(CCCOCCOCCOCCOCCOCCOCCOCCOCCOCCOCCN)nn4)C(=O)N3)NC2=O)C(=O)N[C@@H](CCCCN)C(=O)N[C@@H](CC(C)C)C(=O)N[C@@H](Cc2c[nH]c3ccccc23)C(=O)N1)[C@@H](C)CC)C(N)=O` [compound 171], at hNav1.4 [1], the Nav1.4/Nav1.7 turned out to be 1. In addition, at hNav1.7 [2], the IC50 was not below 5000 nM.
In the same order, the values of `CC[C@H](C)[C@H](NC(=O)[C@H](CCCCN)NC(=O)[C@H](CCCNC(=N)N)NC(=O)[C@@H]1CSSC[C@@H]2NC(=O)[C@H](C)NC(=O)[C@H](CCCNC(=N)N)NC(=O)[C@H](CCCCN)NC(=O)[C@H](CO)NC(=O)[C@H](CC(=O)O)NC(=O)[C@@H]3CSSC[C@H](NC(=O)[C@H](CCC(=O)O)NC(=O)[C@H](CC(C)C)NC(=O)CNC(=O)[C@H](CCC(=O)O)NC(=O)[C@H](CSSC[C@H](NC(=O)[C@@H](N)Cc4ccc(O)cc4)C(=O)N[C@@H](CCC(N)=O)C(=O)N[C@@H](CCCCN)C(=O)N[C@@H](Cc4c[nH]c5ccccc45)C(=O)N[C@@H](CCSC)C(=O)N[C@@H](Cc4c[nH]c5ccccc45)C(=O)N[C@@H]([C@@H](C)O)C(=O)N3)NC2=O)C(=O)N[C@@H](CCCCN)C(=O)N[C@@H](CC(C)C)C(=O)N[C@@H](Cc2c[nH]c3ccccc23)C(=O)N1)C(=O)N[C@@H](Cc1cn(CCCOCCOCCOCCOCCOCCOCCOCCOCCOCCOCCN)nn1)C(N)=O` [compound 188] are 1 and not below 5000 nM.
On to `C#CC[C@H](N)C(=O)NCCOCCOCCOCCOCCOCCOCCOCCOCCOCCOCCOCCOCCC(=O)NCCCC[C@@H]1NC(=O)[C@H](CCCNC(=N)N)NC(=O)[C@H](CCCCN)NC(=O)[C@H](CO)NC(=O)[C@H](CC(=O)O)NC(=O)[C@@H]2CSSC[C@@H]3NC(=O)[C@H](CCC(=O)O)NC(=O)[C@H](CC(C)C)NC(=O)CNC(=O)[C@H](CCC(=O)O)NC(=O)[C@H](CSSC[C@H](NC(=O)[C@@H](N)Cc4ccc(O)cc4)C(=O)N[C@@H](CCC(N)=O)C(=O)N[C@@H](CCCCN)C(=O)N[C@@H](Cc4c[nH]c5ccccc45)C(=O)N[C@@H](CCCC)C(=O)N[C@@H](Cc4c[nH]c5ccccc45)C(=O)N[C@@H]([C@@H](C)O)C(=O)N2)NC(=O)[C@H](CSSC[C@@H](C(=O)N[C@@H](CCCNC(=N)N)C(=O)N[C@@H](CCCCN)C(=O)N[C@H](C(=O)N[C@@H](Cc2c[nH]c4ccccc24)C(N)=O)[C@@H](C)CC)NC(=O)[C@H](Cc2c[nH]c4ccccc24)NC(=O)[C@H](CC(C)C)NC(=O)[C@H](CCCCN)NC3=O)NC1=O` [compound 290], for which the IC50 worked out at 52 nM on hNav1.7 [2], 2730 nM at hNav1.4 [3], 520 nM at hNav1.7 [4] and 6100 nM at hNav1.5. Besides, on hNav1.4 [3], the Nav1.4/Nav1.7 is 5. For the same molecule, on hNav1.5, the Nav1.5/Nav1.7 stood at 12.
For `C#CC[C@H](N)C(=O)NCCOCCOCCOCCOCCC(=O)NCCCC[C@@H]1NC(=O)[C@H](CCCNC(=N)N)NC(=O)[C@H](CCCCN)NC(=O)[C@H](CO)NC(=O)[C@H](CC(=O)O)NC(=O)[C@@H]2CSSC[C@@H]3NC(=O)[C@H](CCC(=O)O)NC(=O)[C@H](CC(C)C)NC(=O)CNC(=O)[C@H](CCC(=O)O)NC(=O)[C@H](CSSC[C@H](NC(=O)[C@@H](N)Cc4ccc(O)cc4)C(=O)N[C@@H](CCC(N)=O)C(=O)N[C@@H](CCCCN)C(=O)N[C@@H](Cc4c[nH]c5ccccc45)C(=O)N[C@@H](CCCC)C(=O)N[C@@H](Cc4c[nH]c5ccccc45)C(=O)N[C@@H]([C@@H](C)O)C(=O)N2)NC(=O)[C@H](CSSC[C@@H](C(=O)N[C@@H](CCCNC(=N)N)C(=O)N[C@@H](CCCCN)C(=O)N[C@H](C(=O)N[C@@H](Cc2c[nH]c4ccccc24)C(N)=O)[C@@H](C)CC)NC(=O)[C@H](Cc2c[nH]c4ccccc24)NC(=O)[C@H](CC(C)C)NC(=O)[C@H](CCCCN)NC3=O)NC1=O` [compound 291], the IC50 at hNav1.7 [2] was determined as 28 nM; at hNav1.4 [3], 1130 nM; on hNav1.7 [4] it was 30 nM; at hNav1.5 it was 3010 nM. Besides, the Nav1.4/Nav1.7 at hNav1.4 [3] turned out to be 38. Also, the Nav1.5/Nav1.7 on hNav1.5 is 100.
As to `C#CC[C@H](N)C(=O)NCCOCCOCCOCCOCCOCCOCCOCCOCCOCCOCCOCCOCCC(=O)NCCCC[C@@H]1NC(=O)[C@@H]2CSSC[C@H](NC(=O)[C@@H](N)Cc3ccc(O)cc3)C(=O)N[C@@H](CCC(N)=O)C(=O)N[C@@H](CCCCN)C(=O)N[C@@H](Cc3c[nH]c4ccccc34)C(=O)N[C@@H](CCCC)C(=O)N[C@@H](Cc3c[nH]c4ccccc34)C(=O)N[C@@H]([C@@H](C)O)C(=O)N[C@H]3CSSC[C@H](NC(=O)[C@H](CCC(=O)O)NC(=O)[C@H](CC(C)C)NC(=O)CNC1=O)C(=O)N[C@@H](CCCCN)C(=O)N[C@@H](CC(C)C)C(=O)N[C@@H](Cc1c[nH]c4ccccc14)C(=O)N[C@H](C(=O)N[C@@H](CCCNC(=N)N)C(=O)N[C@@H](CCCCN)C(=O)N[C@H](C(=O)N[C@@H](Cc1c[nH]c4ccccc14)C(N)=O)[C@@H](C)CC)CSSC[C@H](NC(=O)[C@H](C)NC(=O)[C@H](CCCNC(=N)N)NC(=O)[C@H](CCCCN)NC(=O)[C@H](CO)NC(=O)[C@H](CC(=O)O)NC3=O)C(=O)N2` [compound 292], the IC50 at hNav1.7 [2] is 82 nM; at hNav1.4 [3], 1630 nM; at hNav1.7 [4], 900 nM; on hNav1.5 it was 3120 nM. For the same molecule, the Nav1.4/Nav1.7 at hNav1.4 [3] stood at 2. In addition, on hNav1.5, the Nav1.5/Nav1.7 is listed as 3.
Take `C#CC[C@H](N)C(=O)NCCOCCOCCOCCOCCC(=O)NCCCC[C@@H]1NC(=O)[C@@H]2CSSC[C@H](NC(=O)[C@@H](N)Cc3ccc(O)cc3)C(=O)N[C@@H](CCC(N)=O)C(=O)N[C@@H](CCCCN)C(=O)N[C@@H](Cc3c[nH]c4ccccc34)C(=O)N[C@@H](CCCC)C(=O)N[C@@H](Cc3c[nH]c4ccccc34)C(=O)N[C@@H]([C@@H](C)O)C(=O)N[C@H]3CSSC[C@H](NC(=O)[C@H](CCC(=O)O)NC(=O)[C@H](CC(C)C)NC(=O)CNC1=O)C(=O)N[C@@H](CCCCN)C(=O)N[C@@H](CC(C)C)C(=O)N[C@@H](Cc1c[nH]c4ccccc14)C(=O)N[C@H](C(=O)N[C@@H](CCCNC(=N)N)C(=O)N[C@@H](CCCCN)C(=O)N[C@H](C(=O)N[C@@H](Cc1c[nH]c4ccccc14)C(N)=O)[C@@H](C)CC)CSSC[C@H](NC(=O)[C@H](C)NC(=O)[C@H](CCCNC(=N)N)NC(=O)[C@H](CCCCN)NC(=O)[C@H](CO)NC(=O)[C@H](CC(=O)O)NC3=O)C(=O)N2` [compound 293]: the IC50 stood at 41 nM at hNav1.7 [2], 453 nM on hNav1.4 [3], 570 nM at hNav1.7 [4] and 580 nM on hNav1.5. At hNav1.4 [3], the Nav1.4/Nav1.7 is on record as 1. At hNav1.5, the Nav1.5/Nav1.7 was 1.
For the molecule `CCCC[C@@H]1NC(=O)[C@H](Cc2c[nH]c3ccccc23)NC(=O)[C@H](CCCCN)NC(=O)[C@H](CCC(N)=O)NC(=O)[C@@H](NC(=O)[C@@H](N)Cc2ccc(O)cc2)CSSC[C@@H]2NC(=O)[C@@H]3CSSC[C@@H](C(=O)N[C@@H](CCCNC(=N)N)C(=O)N[C@@H](CCCCN)C(=O)N[C@@H](Cc4ccc(O)cc4)C(=O)N[C@H](C(N)=O)[C@@H](C)CC)NC(=O)[C@H](Cc4c[nH]c5ccccc45)NC(=O)[C@H](CC(C)C)NC(=O)[C@H](CCCCN)NC(=O)[C@H](CSSC[C@H](NC(=O)[C@H]([C@@H](C)O)NC(=O)[C@H](Cc4c[nH]c5ccccc45)NC1=O)C(=O)N[C@@H](CC(=O)O)C(=O)N[C@@H](CO)C(=O)N[C@@H](CCCCN)C(=O)N[C@@H](CCCNC(=N)N)C(=O)N[C@@H](C)C(=O)N3)NC(=O)[C@H](CCC(=O)O)NC(=O)[C@H](CC(C)C)NC(=O)CNC(=O)[C@H](CCCCN=[N+]=[N-])NC2=O` [compound 322], the IC50 at hNav1.7 [2] stood at 67 nM.
